Calls of active or inactive are those of the source. No cut-off for these calls is given here.
Tests used:
Type in all cases: cell-based
[1] = target: T1, von Hippel-Lindau disease tumor suppressor/Histone-lysine N-methyltransferase EZH2 (Homo sapiens) (UniProt Q15910+P40337); assay: Protac activity at VHL/EZH2 in human 22Rv1 cells assessed as reduction in EZH2 level at 1 uM incubated for 48 hrs by Western blot analysis
[2] = target: T1, von Hippel-Lindau disease tumor suppressor/Histone-lysine N-methyltransferase EZH2 (Homo sapiens); assay: Protac activity at VHL/EZH2 in human 22Rv1 cells assessed as reduction in H3K27me3 level at 1 uM incubated for 48 hrs by Western blot analysis
[3] = target: T2, Protein cereblon/Histone-lysine N-methyltransferase EZH2 (Homo sapiens) (UniProt Q15910+Q96SW2); assay: Protac activity at CRBN E3 ligase/EZH2 in human 22Rv1 cells assessed as inhibition of H3K27me3 at 0.3 uM incubated for 48 hrs by Western blot analysis
[4] = target: T2, Protein cereblon/Histone-lysine N-methyltransferase EZH2 (Homo sapiens); assay: Protac activity at CRBN E3 ligase/EZH2 in human 22Rv1 cells assessed as inhibition of H3K27me3 at 3 uM incubated for 48 hrs by Western blot analysis
[5] = target: T2, Protein cereblon/Histone-lysine N-methyltransferase EZH2 (Homo sapiens); assay: Protac activity at CRBN E3 ligase/EZH2 in human 22Rv1 cells assessed as degradation of EZH2 at 3 uM incubated for 48 hrs by Western blot analysis
[6] = target: T2, Protein cereblon/Histone-lysine N-methyltransferase EZH2 (Homo sapiens); assay: Protac activity at CRBN E3 ligase/EZH2 in human 22Rv1 cells assessed as inhibition of H3K27me3 at 1 uM incubated for 48 hrs by Western blot analysis
[7] = target: T2, Protein cereblon/Histone-lysine N-methyltransferase EZH2 (Homo sapiens); assay: Protac activity at CRBN E3 ligase/EZH2 in human 22Rv1 cells assessed as degradation of EZH2 at 1 uM incubated for 48 hrs by Western blot analysis
[8] = target: T2, Protein cereblon/Histone-lysine N-methyltransferase EZH2 (Homo sapiens); assay: Protac activity at CRBN E3 ligase/EZH2 in human 22Rv1 cells assessed as degradation of EZH2 at 0.3 uM incubated for 48 hrs by Western blot analysis

T1 sequence (P40337 whole entry, looked up): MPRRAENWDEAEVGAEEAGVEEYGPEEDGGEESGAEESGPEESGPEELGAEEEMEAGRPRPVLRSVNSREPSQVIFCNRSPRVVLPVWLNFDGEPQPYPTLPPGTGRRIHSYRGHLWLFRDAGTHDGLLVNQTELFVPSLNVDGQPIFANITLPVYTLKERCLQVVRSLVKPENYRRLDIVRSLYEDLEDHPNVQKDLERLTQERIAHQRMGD
T1 sequence (Q15910 whole entry, looked up): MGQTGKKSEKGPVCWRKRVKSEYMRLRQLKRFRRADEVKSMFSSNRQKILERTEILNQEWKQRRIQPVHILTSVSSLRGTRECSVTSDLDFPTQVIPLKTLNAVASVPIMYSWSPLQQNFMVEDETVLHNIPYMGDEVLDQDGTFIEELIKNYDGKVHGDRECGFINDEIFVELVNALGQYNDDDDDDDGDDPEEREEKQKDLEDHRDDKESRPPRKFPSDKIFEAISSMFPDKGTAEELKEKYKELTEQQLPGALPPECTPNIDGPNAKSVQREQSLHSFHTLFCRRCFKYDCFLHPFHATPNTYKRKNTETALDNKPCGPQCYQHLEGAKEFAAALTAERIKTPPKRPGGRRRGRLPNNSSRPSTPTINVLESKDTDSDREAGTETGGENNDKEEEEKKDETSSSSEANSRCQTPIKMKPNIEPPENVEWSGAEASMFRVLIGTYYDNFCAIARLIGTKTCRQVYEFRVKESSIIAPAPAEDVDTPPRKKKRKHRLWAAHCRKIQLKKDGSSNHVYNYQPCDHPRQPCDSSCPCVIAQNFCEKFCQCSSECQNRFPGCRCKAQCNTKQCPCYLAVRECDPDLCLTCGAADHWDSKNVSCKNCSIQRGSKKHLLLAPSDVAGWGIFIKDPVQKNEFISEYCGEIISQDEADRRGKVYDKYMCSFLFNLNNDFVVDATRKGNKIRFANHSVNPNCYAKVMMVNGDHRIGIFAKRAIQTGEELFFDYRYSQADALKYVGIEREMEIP
T2 sequence (Q15910 whole entry, looked up): as above
T2 sequence (Q96SW2 whole entry, looked up): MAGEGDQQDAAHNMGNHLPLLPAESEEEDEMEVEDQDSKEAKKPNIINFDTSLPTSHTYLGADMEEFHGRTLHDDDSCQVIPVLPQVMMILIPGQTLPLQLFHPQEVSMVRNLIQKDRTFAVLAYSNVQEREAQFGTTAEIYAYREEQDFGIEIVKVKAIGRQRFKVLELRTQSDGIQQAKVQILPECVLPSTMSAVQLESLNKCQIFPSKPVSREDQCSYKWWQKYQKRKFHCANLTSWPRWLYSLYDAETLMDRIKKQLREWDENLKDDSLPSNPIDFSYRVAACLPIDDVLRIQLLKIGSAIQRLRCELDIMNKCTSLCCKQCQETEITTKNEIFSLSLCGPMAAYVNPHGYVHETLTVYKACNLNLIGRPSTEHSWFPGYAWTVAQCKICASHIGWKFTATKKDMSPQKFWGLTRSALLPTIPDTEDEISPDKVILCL

| SMILES | Activity [1] | Activity [2] | Activity [3] | Activity [4] | Activity [5] | Activity [6] | Activity [7] | Activity [8] |
| --- | --- | --- | --- | --- | --- | --- | --- | --- |
| CCN(c1cc(-c2ccc(C(=O)NCCOCCOCC(=O)N[C@H](C(=O)N3C[C@H](O)C[C@H]3C(=O)NCc3ccc(-c4scnc4C)cc3)C(C)(C)C)cc2)cc(C(=O)NCc2c(C)cc(C)[nH]c2=O)c1C)C1CCOCC1 |  | Active |  |  |  |  |  |  |
| CCN(c1cc(-c2ccc(C(=O)NCCCCCCNC(=O)COc3cccc4c3C(=O)N(C3CCC(=O)NC3=O)C4=O)cc2)cc(C(=O)NCc2c(C)cc(C)[nH]c2=O)c1C)C1CCOCC1 (stereo not drawn) |  |  | Active | Active | inactive | Active | inactive | inactive |
| CCN(c1cc(-c2ccc(C(=O)NCCOCCOCCOCCOc3cccc4c3C(=O)N(C3CCC(=O)NC3=O)C4=O)cc2)cc(C(=O)NCc2c(C)cc(C)[nH]c2=O)c1C)C1CCOCC1 (stereo not drawn) |  |  | inactive | Active | inactive | Active | inactive | inactive |
| CCN(c1cc(-c2ccc(C(=O)NCCOCCNc3cccc4c3C(=O)N(C3CCC(=O)NC3=O)C4=O)cc2)cc(C(=O)NCc2c(C)cc(C)[nH]c2=O)c1C)C1CCOCC1 (stereo not drawn) |  |  | Active | Active | inactive | Active | inactive | inactive |

Now from value to compound:

| Activity [1] | Activity [2] | Activity [3] | Activity [4] | Activity [5] | Activity [6] | Activity [7] | Activity [8] | SMILES |
| --- | --- | --- | --- | --- | --- | --- | --- | --- |
| inactive | inactive |  |  |  |  |  |  | CCN(c1cc(-c2ccc(C(=O)NCCOCCOCCOCC(=O)N[C@H](C(=O)N3C[C@H](O)C[C@H]3C(=O)NCc3ccc(-c4scnc4C)cc3)C(C)(C)C)cc2)cc(C(=O)NCc2c(C)cc(C)[nH]c2=O)c1C)C1CCOCC1 |
| inactive | inactive |  |  |  |  |  |  | CCN(c1cc(-c2ccc(C(=O)NCCOCCOCCOCCOCC(=O)N[C@H](C(=O)N3C[C@H](O)C[C@H]3C(=O)NCc3ccc(-c4scnc4C)cc3)C(C)(C)C)cc2)cc(C(=O)NCc2c(C)cc(C)[nH]c2=O)c1C)C1CCOCC1 |
